{"source": "paper PMC5451472", "about": "“Novel Locally Active Estrogens Accelerate Cutaneous Wound Healing-Part 2” (Scientific Reports, 2017)", "key": {"[1]": {"tested_on": "ER transcriptional activity", "test": "Whole body in vivo bioluminescence imaging of ERE-Luc mice, dose-response after s.c. administration", "set-up": "species or system mouse", "conditions": "for Photon Emission, whole body: 6 h vs 0 h, n = 4", "source_text": "To investigate the activity of 1e and 1f at systemic level, we utilized the ERE-Luc reporter mice. The ERE-luc is a transgenic model obtained by random integration of a luciferase reporter driven by an estrogen-responsive promoter. The ubiquitous, regulated expression of luciferase was obtained by flanking the reporter construct with insulators.\nHere, the first study we carried out was a large-range dose-response analysis to measure whole body luciferase assay after subcutaneous administration of: (1) the vehicle; (2) corn oil as control; (3) the two compounds 1e and 1f at the dosage of 20 μg/kg, 200 μg/kg, 2 mg/kg and 20 mg/kg. The mice (4 for each experimental group) were subjected to in vivo whole body imaging 6 h after the pharmacological treatment. This time was selected on the basis of previous studies showing that the peak of ER transcriptional activation generally occurs at 6–8 h after administration of the estrogenic compounds[16], [17].\n(§1) For the semi-quantitative analysis of in vivo photon emission, animals were injected i.p. with 80 mg/kg of luciferin (Beetle Luciferin Potassium Salt; Promega, Madison, WI, USA) 15 min prior the imaging session. For the imaging, mice were anaesthetized using isofluorane (Isofluorane-Vet; Merial, Lyon, France) and kept under anesthesia during the 5 minutes of the session carried out with a CCD camera: both ventral and dorsal acquisition (Xenogen IVIS Lumina System; Caliper, PerkinElmer company). Photon emission in selected body areas was measured using the Living Image Software (Caliper, PerkinElmer company). The analysis was done in ventral view: whole body, thymus, hepatic area, abdomen, limbs, vagina and in dorsal view in wound area and expressed as photon/second/cm2/steradiant (p/s/cm2/sr)."}, "[2]": {"tested_on": "ER transcriptional activity", "test": "In vivo BLI time course in wounded ovariectomized ERE-Luc mice, compounds s.c. around the wound", "set-up": "species or system mouse", "procedure": "To study the estrogenic and healing properties of the two compounds, we generated a wound in the ERE-Luc mouse model and tested the activity of the two compounds administered s.c. in the area surrounding the wound as described in the methodology section.\nEach group was composed of 4 ERE-Luc females’ mice ovariectomized 2 weeks’ prior the experiment to avoid any interference due to endogenous estrogens. Photon emission was measured in the living animals three times: at 0, 3 and 6 h after s.c. injection.\nERE-Luc and MITO-Luc mice were ovariectomized at two months of age; the experiment was done 2 weeks after surgery to allow the animals to recover and to decrease the levels of circulating estrogens. The animals were fed ad libitum with a special estrogen free diet (AIN 93 M, Mucedola) (Ciana et al. Endocrinology 2005) and housed in individually ventilated plastic cages within a temperature range of 22–25 °C, relative humidity of 50% ± 10% and under an automatic cycle of 12 h light/dark (lights on at 07:00 am). All animal experimentation was carried out in accordance with the ARRIVE and European Guidelines for Animal Care. All animal experiments were approved by the Italian Ministry of Research and University and controlled by a Departmental panel of experts. For the correct dosage of the compounds, the body weight of the animals (on empty stomach, fasted for at least 12–14 hours) was determined immediately before the treatment.\n(§2) Ovariectomy was carried out as previously described. Wound healing was done after shaving by VEET depilatory cream a day before the treatment. The 1 cm full-thickness incisional wound was made through the skin and panniculus carnosus muscle of ovariectomized MITO-luc using a surgical scalpel (blade n°10, carbon steel, Swann-Morton Ltd). Round full-thickness wounds were done by cutting out a section of full-thickness skin (around 9 mm in diameter) using fine scissors on the dorsal skin of the isoflurane-anesthetized animal. For in vivo treatment the compounds were administered onto the subcutaneous area surrounding the wound by multiple subcutaneous injection, immediately after the generation of the wound.\nas §1"}, "[3]": {"tested_on": "ER transcriptional activity", "test": "Ex vivo BLI and luciferase enzymatic assay in organs of ERE-Luc mice", "set-up": "species or system mouse", "conditions": "200 µg/kg s.c., 6 hours after treatment", "procedure": "We next examined photon emission in a series of organs excised from the mice euthanized at 6 hours after treatment by measuring photon emission with the CCD camera (Fig. 6a) and by the more sensitive enzymatic assay in tissue extracts of each organ (Fig. 6b).\nThe selected organs were dissected from the animals who had received luciferine 20 min before euthanasia. The tissues were immediately subjected to ex vivo imaging session of 5 minutes. Photon emission was quantified with the Living Image Software (Caliper, PerkinElmer company) for each tissue and expressed as p/s/cm2/sr.\nLuciferase enzymatic activity was measured in cells or selected tissue homogenates by a luminometer (Glomax™96 microplate luminometer; Promega) using Promega standard luciferin (Beetle Luciferin Potassium Salt) and expressed as Relative Light Units over 10 sec/μg protein (RLU/μg protein). Proteins concentrations were measured by Bradford."}, "MITO-Luc mice": {"tested_on": "MITO-Luc mice", "test": "Granulation tissue histoscore of round full-thickness wound at day 10", "format": "in vivo, mouse", "conditions": "200 µg/kg s.c., day 10, round wound, scale 1-3 (vehicle 0.3)", "procedure": "The measure of photon emission from the wound area was done for several days after the wounding. 3 days after treatment the bioluminescent signal is highest (Fig. 10 Panel a).\nas §2\nAt the time of euthanasia, the wounds with surrounding healthy tissue were excised, distended on a strip of hard paper and fixed in 10% buffered formalin (pH = 6). […] For histopathological examination 4 µm sections were routinely stained with Hematoxylin-Eosin (HE) and evaluated under a light microscope. The degree of re-epithelialization, the type and amount of granulation tissue and inflammation, which are the main features of wound healing, were scored separately. […]"}}, "data": [{"smiles": "CCCCOC(=O)CCC#C[C@]1(O)CC[C@H]2[C@@H]3CCc4cc(O)ccc4[C@H]3CC[C@@]21C", "note": "[1e, 3,17β-Hydroxy-17α-(4′carbobutoxy-1′-butyn-1′-yl)estra-1,3,5-(10)-triene]", "values": [{"measurement": "Photon Emission, whole body", "setting": "[1]; 2 mg/kg s.c.", "result": 3, "unit": "x"}, {"measurement": "Photon Emission, whole body", "setting": "[1]; 20 mg/kg s.c.", "result": 12, "unit": "x"}, {"measurement": "expression of the luciferase reporter", "setting": "[1]; 2 and 20 mg/kg s.c., 6 h", "result": "induced the expression of the luciferase reporter around the area of subcutaneous injection and in some other body areas"}, {"measurement": "effect at systemic level (whole body luciferase)", "setting": "[1]; 20 and 200 μg/kg s.c., 6 h", "result": "did not induce any measurable effect"}, {"measurement": "photon emission in body areas (whole body, thymus, hepatic area, abdomen, limbs, vagina)", "setting": "[2]; 200 µg/kg s.c. around wound, 3 or 6 h, ovx mice", "result": "did not observe increased photon emission in any of the body areas"}, {"measurement": "increase of photon emission in the wound area with respect to time 0", "setting": "[2]; 200 µg/kg s.c., 6 hours, trend", "result": 30, "unit": "%"}, {"measurement": "bioluminescence in excised organs (ex vivo BLI, enzymatic luciferase assay)", "setting": "[3]", "result": "did not induce bioluminescence in any of the organs investigated"}, {"measurement": "Score of granulation tissue (fibrosis), histoscore mean", "setting": "MITO-Luc mice", "result": 1.5}]}]}
